Patent US12673924B2, “Valiolamine derivatives as glucosidase inhibitors” (Emergent Product Development Gaithersburg Inc., priority 2021, dated 2026)

Biological target: T1, recombinant alpha-glucosidase II (murine full-length glucosidase II) (Mus musculus, UniProt Q8BHN3)
T1 construct: made in house; host or cells: HEK-293T cells co-transduced with two BacMam viruses (75% alpha, 25% beta); secreted into the culture supernatant
T1 sequence (Q8BHN3 with tags, fused parts or gaps isoform Q8BHN3-2): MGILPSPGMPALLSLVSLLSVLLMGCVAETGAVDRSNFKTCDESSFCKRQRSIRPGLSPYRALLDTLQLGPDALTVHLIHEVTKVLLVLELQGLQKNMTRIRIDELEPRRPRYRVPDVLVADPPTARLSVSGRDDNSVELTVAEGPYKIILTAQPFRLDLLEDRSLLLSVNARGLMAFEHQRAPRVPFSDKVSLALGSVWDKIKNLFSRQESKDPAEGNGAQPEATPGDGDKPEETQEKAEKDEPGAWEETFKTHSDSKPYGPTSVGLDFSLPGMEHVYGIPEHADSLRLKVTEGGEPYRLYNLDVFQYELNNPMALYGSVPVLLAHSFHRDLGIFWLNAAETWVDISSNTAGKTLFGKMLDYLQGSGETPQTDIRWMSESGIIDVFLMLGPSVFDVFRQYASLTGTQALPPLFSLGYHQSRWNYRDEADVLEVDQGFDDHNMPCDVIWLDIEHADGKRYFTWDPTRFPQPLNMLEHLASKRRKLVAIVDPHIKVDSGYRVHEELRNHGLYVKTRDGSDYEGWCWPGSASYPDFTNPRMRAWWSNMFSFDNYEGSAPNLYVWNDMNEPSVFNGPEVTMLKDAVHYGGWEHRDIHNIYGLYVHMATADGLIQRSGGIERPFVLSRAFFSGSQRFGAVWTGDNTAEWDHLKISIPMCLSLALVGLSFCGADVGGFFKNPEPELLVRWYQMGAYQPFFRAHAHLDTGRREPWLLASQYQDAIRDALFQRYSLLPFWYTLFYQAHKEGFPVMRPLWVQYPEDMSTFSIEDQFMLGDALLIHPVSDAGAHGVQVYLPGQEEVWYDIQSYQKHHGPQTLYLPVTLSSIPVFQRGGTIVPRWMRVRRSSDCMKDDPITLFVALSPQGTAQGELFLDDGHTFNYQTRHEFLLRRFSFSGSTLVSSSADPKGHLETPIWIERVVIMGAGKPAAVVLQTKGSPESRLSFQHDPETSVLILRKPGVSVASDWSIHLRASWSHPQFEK
T1 sequence (O08795 with tags, fused parts or gaps partner limits assumed): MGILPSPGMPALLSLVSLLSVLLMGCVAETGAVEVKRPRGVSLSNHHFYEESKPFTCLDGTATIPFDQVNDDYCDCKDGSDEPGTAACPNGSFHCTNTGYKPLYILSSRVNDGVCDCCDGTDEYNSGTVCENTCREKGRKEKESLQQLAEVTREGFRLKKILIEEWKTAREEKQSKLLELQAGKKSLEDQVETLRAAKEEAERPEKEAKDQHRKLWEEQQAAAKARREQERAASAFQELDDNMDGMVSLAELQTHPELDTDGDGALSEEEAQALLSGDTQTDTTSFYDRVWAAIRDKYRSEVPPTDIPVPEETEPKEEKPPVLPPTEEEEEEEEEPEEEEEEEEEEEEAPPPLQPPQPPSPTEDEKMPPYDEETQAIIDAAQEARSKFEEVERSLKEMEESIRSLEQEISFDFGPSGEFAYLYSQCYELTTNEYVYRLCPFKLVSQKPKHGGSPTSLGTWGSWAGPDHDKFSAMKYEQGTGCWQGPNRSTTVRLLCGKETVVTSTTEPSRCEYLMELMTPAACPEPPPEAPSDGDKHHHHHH
Assay: Alpha-glucosidase II assay
Format: biochemical
Settings: 4-methylumbelliferyl-alpha-D-pyranoside substrate, read-out: aGlc2 IC50
From the text: Preparation of Murine Full-length Glucosidase II: Glucosidase is a heterodimeric protein consisting of alpha and beta subunits. […] A single construct was designed for each of the subunits for gene synthesis and cloning into Gateway entry vectors. The alpha subunit was appended with a Strep-affinity tag and the beta subunit was appended with a 6-His affinity tag. The entry vectors were cloned into Kemp Protein's BacMam Destination vector and the vectors were transformed into chemically competent DH10Bac E. coli cells to produce recombinant glucosidase II bacmids. Bacmid isolates for each of the subunits were obtained following two rounds of blue-white screening and they were transfected into Sf9 cells cultivated in serum-free medium (Thermo Fisher Scientific). MOI of 10 with a ratio of 75% alpha subunit and 25% beta subunit was selected for expression of glucosidase II. […] Productions and purifications of glucosidase II were carried out at scales ranging from 1-liter to 10-liters. […] In another example, production at the 10-liter scale was performed in stirred-tank bioreactors at 27° C. and 80 rpm with dissolved oxygen level maintained at 50% of oxygen in air and pH maintained between 7.0 and 7.2. For both subunits, the cells were transduced using a total MOI of 10 (75% alpha and 25% beta) and the culture supernatant was harvested at 96 hours post-transduction using centrifugation and filtration through a 0.2 micron filter.
The supernatant from a 10-liter culture was placed in a stir-jar and 25 mL of Nickel-SEPHAROSE Excel resin (GE) was added. The supernatant was stirred overnight at 25 rpm and 4° C. and the resin was collected into a column (26 mm×60 mm) and washed with 8 CV of 2×DPBS at pH 7.4. The glucosidase II protein was eluted using a linear gradient of 0-60% of 2×DPBS and 500 mM imidazole at pH 7.4. Fractions (10 mL) were collected and analyzed by SDS PAGE and Western Blot (reducing anti-His and anti-Strep). Fractions containing purified glucosidase II were pooled and concentrated for application to a SUPERDEX 200 (26 mm×600 mm) column (GE). The column buffer was PBS pH 7.2 and the concentrated eluate pool was loaded at a rate of 1 mL per minute. Fractions (3 mL) were collected and analyzed using SDS PAGE and Western Blot (reducing anti-His and anti-Strep). Fractions containing purified glucosidase II in PBS pH 7.2 were pooled and concentrated to 1 mg/mL. The final product was filter sterilized and stored at 4° C.
Alpha-glucosidase II Assay: The assay was performed by incubating recombinant enzyme alpha-glucosidase II for 60 minutes at 37° C. with multiple dilutions of test compounds. 4-methylumbelliferyl-alpha-D-pyranoside was then introduced as the substrate to the mixture. Fluorogenic 1,4-methyllumbelliferone was generated, and the reaction was stopped with the stop solution (0.5 M glycine, 0.3 M NaOH pH 10) after an incubation of 30 minutes at 37° C. […] Percent inhibition was then plotted as a function of concentration for each test compound.

| IC50 [nM] | SMILES |
| --- | --- |
| 490 | COCCCCCCCCCN[C@H]1C[C@](O)(CO)[C@@H](O)[C@H](O)[C@H]1O [Compound 3, (1S,2S,3R,4S,5S)-1-(hydroxymethyl)-5-((9-methoxynonyl)amino)cyclohexane-1,2,3,4-tetraol] |
| 1010 | [N-]=[N+]=Nc1ccc(NCCCCN[C@H]2C[C@](O)(CO)[C@@H](O)[C@H](O)[C@H]2O)c([N+](=O)[O-])c1 [Compound 8, (1S,2S,3R,4S,5S)-5-((4-((4-azido-2-nitrophenyl)amino)butyl)amino)-1-(hydroxymethyl)cyclohexane-1,2,3,4-tetraol] |
| 37000 | [N-]=[N+]=Nc1ccc(NCCOCCN[C@H]2C[C@](O)(CO)[C@@H](O)[C@H](O)[C@H]2O)c([N+](=O)[O-])c1 [Compound 10, (1S,2S,3R,4S,5S)-5-((2-(2-((4-azido-2-nitrophenyl)amino)ethoxy)ethyl)amino)-1-(hydroxymethyl)cyclohexane-1,2,3,4-tetraol] |
| > 100000 | O=C(O)CCCCN[C@H]1C[C@](O)(CO)[C@@H](O)[C@H](O)[C@H]1O [Compound 11, 5-(((1S,2S,3R,4S,5S)-2,3,4,5-tetrahydroxy-5-(hydroxymethyl)cyclohexyl)amino)pentanoic acid] |
| > 100000 | N[C@H]1C[C@](O)(CO)[C@@H](O)[C@H](O)[C@H]1O [Valiolamine] |

Second part, the molecule before the results:

| SMILES | IC50 [nM] |
| --- | --- |
| [N-]=[N+]=Nc1ccc(NCCCCCCN[C@H]2C[C@](O)(CO)[C@@H](O)[C@H](O)[C@H]2O)c([N+](=O)[O-])c1 [Compound 2, (1S,2S,3R,4S,5S)-5-((6-((4-azido-2-nitrophenyl)amino)hexyl)amino)-1-(hydroxymethyl)cyclohexane-1,2,3,4-tetraol] | 33.7 |
| O=[N+]([O-])c1cc(-n2cnnn2)ccc1NCCCCCCN[C@H]1C[C@](O)(CO)[C@@H](O)[C@H](O)[C@H]1O [Compound 4, (1S,2S,3R,4S,5S)-1-(hydroxymethyl)-5-((6-((2-nitro-4-(1H-tetrazol-1-yl)phenyl)amino)hexyl)amino)cyclohexane-1,2,3,4-tetraol] | 1420 |
| O=[N+]([O-])c1cc(-n2nccn2)ccc1NCCCCCCN[C@H]1C[C@](O)(CO)[C@@H](O)[C@H](O)[C@H]1O [Compound 5, (1S,2S,3R,4S,5S)-1-(hydroxymethyl)-5-((6-((2-nitro-4-(2H-1,2,3-triazol-2-yl)phenyl)amino)hexyl)amino)cyclohexane-1,2,3,4-tetraol] | < 1 |
| O=[N+]([O-])c1cc(-n2ccnn2)ccc1NCCCCCCN[C@H]1C[C@](O)(CO)[C@@H](O)[C@H](O)[C@H]1O [Compound 6, (1S,2S,3R,4S,5S)-1-(hydroxymethyl)-5-((6-((2-nitro-4-(1H-1,2,3-triazol-1-yl)phenyl)amino)hexyl)amino)cyclohexane-1,2,3,4-tetraol] | 15.5 |
| O=[N+]([O-])c1cc(-c2ncccn2)ccc1NCCCCCCN[C@H]1C[C@](O)(CO)[C@@H](O)[C@H](O)[C@H]1O [Compound 7, (1S,2S,3R,4S,5S)-1-(hydroxymethyl)-5-((6-((2-nitro-4-(pyrimidin-2-yl)phenyl)amino)hexyl)amino)cyclohexane-1,2,3,4-tetraol] | 1.1 |
| [N-]=[N+]=Nc1ccc(NCCCCCN[C@H]2C[C@](O)(CO)[C@@H](O)[C@H](O)[C@H]2O)c([N+](=O)[O-])c1 [Compound 9, (1S,2S,3R,4S,5S)-5-((5-((4-azido-2-nitrophenyl)amino)pentyl)amino)-1-(hydroxymethyl)cyclohexane-1,2,3,4-tetraol] | 27 |
